Results from PMC9284540 (Journal of Molecular Biology, 2022).
Several values for one entry are separate records, joined by “and”; a condition that tells them apart may be missing. Identical values can stand only once.

Assays:
[1] = biological target: T1, SARS-CoV-2 MD (Severe acute respiratory syndrome coronavirus 2, UniProt P0DTD1); assay type: binding
[2] = biological target: hPARP14 MD2 (Homo sapiens, UniProt Q460N5); assay: biochemical; assay type: binding
[3] = tested on: viral MDs; assay type: biochemical
[4] = biological target: T1, SARS-CoV-2 MD; assay type: binding; remark: listed apart in the source
[5] = biological target: T2, CHIKV MD (Chikungunya virus, UniProt Q8JUX6); assay: biochemical; assay type: binding
[6] = biological target: T3, MAYV MD (Mayaro virus, UniProt Q8QZ73); assay type: biochemical
[7] = biological target: T2, CHIKV MD; assay type: biochemical
[8] = biological target: T1, SARS-CoV-2 MD; assay type: biochemical
[9] = biological target: T2, CHIKV MD; assay type: binding
[10] = biological target: T3, MAYV MD; assay type: binding

T3 sequence (Q8QZ73 1335-1493 limits assumed): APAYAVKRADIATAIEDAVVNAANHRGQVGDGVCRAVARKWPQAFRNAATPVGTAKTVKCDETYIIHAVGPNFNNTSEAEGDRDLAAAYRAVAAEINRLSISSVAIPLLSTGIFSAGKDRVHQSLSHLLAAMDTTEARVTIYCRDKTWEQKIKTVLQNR
T2 sequence (Q8JUX6 1334-1493 limits assumed): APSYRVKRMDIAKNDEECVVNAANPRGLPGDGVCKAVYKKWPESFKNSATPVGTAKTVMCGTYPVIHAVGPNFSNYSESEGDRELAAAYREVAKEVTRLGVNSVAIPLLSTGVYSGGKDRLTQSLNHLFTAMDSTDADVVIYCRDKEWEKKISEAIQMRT
Chain of hPARP14 MD2 (Q460N5 999-1191): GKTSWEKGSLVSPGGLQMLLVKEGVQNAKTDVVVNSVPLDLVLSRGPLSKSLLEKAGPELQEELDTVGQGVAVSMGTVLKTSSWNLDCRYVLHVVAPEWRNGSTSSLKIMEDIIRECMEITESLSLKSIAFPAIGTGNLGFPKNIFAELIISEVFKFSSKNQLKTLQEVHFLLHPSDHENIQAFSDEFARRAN

Nc1ncnc2c1ncn2[C@@H]1O[C@H](CO)[C@@H](O)[C@H]1O [Adenosine]
exchange regime on NMR time scale between free and bound form [1]: fast exchange regime

N#C[C@@]1(c2ccc3c(N)ncnn23)O[C@H](CO)[C@@H](O)[C@H]1O [GS-441524]
Kd [2]: ~250 µM | exchange regime on NMR time scale between free and bound form [1]: slow exchange regime | reduction of the k value [3]: 15–32% | -T*ΔS [4]: -1.55 kcal/mol | ΔH [4]: -5.25 ± 0.13 kcal/mol | ΔS [4]: +5.2 cal/mol K-1 | Kd [5]: ~100 µM | Initial substrate decay rate k [6]: 0.190 ± 0.002 µM/min and 0.153 ± 0.003 µM/min | Initial substrate decay rate k [7]: 0.179 ± 0.003 µM/min | Initial substrate decay rate k [8]: 0.121 ± 0.002 µM/min and 0.075 ± 0.003 µM/min | reduction of the k value [8]: 60% | exchange regime on NMR time scale [9]: fast and intermediate exchange regime | exchange regime on NMR time scale [10]: fast and intermediate exchange regime

CCC(CC)COC(=O)[C@H](C)N[P@](=O)(OC[C@H]1O[C@@](C#N)(c2ccc3c(N)ncnn23)[C@H](O)[C@@H]1O)Oc1ccccc1 [Remdesivir]
Initial substrate decay rate k [8]: 0.157 ± 0.012 µM/min and 0.169 ± 0.002 µM/min
